Patent US12178871B2 (priority 2018, dated 2024)

Legend:
[1] = system: influenza virus subtype A mice-lung adaptive strain FM1; conditions: mouse, in vivo
[2] = system: mouse lung cancer LL2 cell; assay: LL2 lung cancer tumor-bearing mouse model; format: in vivo; conditions: cisplatin 5 mg/kg, tail vein injection once a week
Description: The tumor cells in this model grew rapidly, with tumor volume of 2201.9 mm^3±68.01 mm^3 on the 14th day after the inoculation and the experiment was over. […] As explanation, the cisplatin group is more likely to show efficacy in this model with very rapid cell division.

[3] = in vivo; cited from earlier work

NC(=O)c1ncn([C@@H]2O[C@H](CO)[C@@H](O)[C@H]2O)n1 [Ribavirin]
X^2 [1]: 1.64

N.N.[Cl][Pt][Cl] [cisplatin]
T/Cb (%) [2]: 28.9% | TV at day 14 [2]: 637.79 ± 62.87 mm^3

polyinosinic-polycytidylic acid with poly-L-lysine and carboxymethyl cellulose [PICLC]
fever [3]: 100% | hypotension [3]: 50% | myalgia [3]: 50%
